According to US20070128179A1 (priority 2005, published 2007):
≈ marks a conversion by molar mass, not a printed value. Read-outs that look alike come from different tables or passages of the source. No end group written: not given here.

Columns and labels:
Staphylococcus aureus = format: cell-based
Enterobacter aerogenes = format: cell-based
Proteus vulgaris = format: cell-based
Proteus mirabilis = format: cell-based
Pseudomonas aeruginosa = format: cell-based
Escherichia coli = format: cell-based
[1] = test system: B. pseudomallei (strain KHW); conditions: 24 h
Burkholderia cepacia = conditions: 50 μg/mL; cited from earlier work
23 tested strains = conditions: cited from earlier work
[2] = test system: THP-1 cells (Human macrophage)
[3] = test system: B. pseudomallei (strain TES); test: microbe, parasite or virus in culture; format: cell-based, Burkholderia pseudomallei; conditions: 24 h; for MIC: Burkholderia pseudomallei, read-out: MIC (breaking point)
[4] = test system: severe meloidosis patients; conditions: human, in vivo; cited from earlier work
[5] = test system: B. pseudomallei (strain KHW); test: microbe, parasite or virus in culture; conditions: Burkholderia pseudomallei, 24 h, read-out: MIC (breaking point)
THP-1 cells = format: cell-based, Human

Penicillin
Size of inhibition zone, Sa (+) (Staphylococcus aureus): 17.4 ± 0.89 mm | Size of inhibition zone, Ea (−) (Enterobacter aerogenes): 18.3 ± 0.85 mm | Size of inhibition zone, Pv (−) (Proteus vulgaris): 16.7 ± 0.98 mm | Size of inhibition zone, Pm (−) (Proteus mirabilis): 27.8 ± 1.10 mm | Size of inhibition zone, Pa (−) (Pseudomonas aeruginosa): 16.6 ± 0.89 mm | Size of inhibition zone, Ec (−) (Escherichia coli): 15.2 ± 0.84 mm

CC[C@H](C)[C@H](NC(=O)CN)C(=O)NCC(=O)N[C@@H](C)C(=O)N[C@H](C(=O)N[C@@H](CC(C)C)C(=O)N[C@@H](CCCCN)C(=O)N[C@H](C(=O)N[C@@H](CC(C)C)C(=O)N[C@H](C(=O)N[C@H](C(=O)NCC(=O)N[C@@H](CC(C)C)C(=O)N1CCC[C@H]1C(=O)N[C@@H](C)C(=O)N[C@@H](CC(C)C)C(=O)N[C@H](C(=O)N[C@@H](CO)C(=O)N[C@@H](Cc1c[nH]c2ccccc12)C(=O)N[C@H](C(=O)N[C@@H](CCCCN)C(=O)N[C@@H](CCCNC(=N)N)C(=O)N[C@@H](CCCCN)C(=O)N[C@@H](CCCNC(=N)N)C(=O)N[C@@H](CCC(N)=O)C(=O)N[C@@H](CCC(N)=O)C(N)=O)[C@@H](C)CC)[C@@H](C)CC)[C@@H](C)O)[C@@H](C)O)C(C)C)C(C)C [melittin]
MIC (breaking point) [1]: 250 µg/mL (≈ 87.8 µM)

hBD-3 (GIINTLQKYYCRVRGGRCAVLSCLPKEEQIGKCSTRGRKCCRRKK; ends and bridges not checked; cysteine pairing not given here; UniProt P81534 23-67, looked up)
effect (Burkholderia cepacia): did not show any effect | MBCs (23 tested strains): > 100 µg/mL

Triton X-100
cell death [2]: 90% | hemolytic activity (human red blood cells): 100%

O=C(N[C@H](CO)[C@H](O)c1ccc([N+](=O)[O-])cc1)C(Cl)Cl [Chloramphenicol]
Size of inhibition zone, Sa (+) (Staphylococcus aureus): 35.1 ± 1.26 mm | Size of inhibition zone, Ea (−) (Enterobacter aerogenes): 27.8 ± 1.09 mm | Size of inhibition zone, Pv (−) (Proteus vulgaris): 24.6 ± 0.86 mm | Size of inhibition zone, Pm (−) (Proteus mirabilis): 33 ± 2.34 mm | Size of inhibition zone, Pa (−) (Pseudomonas aeruginosa): 25 ± 0.70 mm | Size of inhibition zone, Ec (−) (Escherichia coli): 31.8 ± 1.64 mm | optical density (560 nm) of bacterial growth, strain TES ([3]; 0.03125 mg/mL): 0.37 | percentage in parentheses (susceptibility), strain TES ([3]; 0.03125 mg/mL): (38%) | optical density (560 nm) of bacterial growth, strain TES ([3]; 0.0625 mg/mL): 0.34 | percentage in parentheses (susceptibility), strain TES ([3]; 0.0625 mg/mL): (41%) | optical density (560 nm) of bacterial growth, strain TES ([3]; 0.125 mg/mL): 0.07 | optical density (560 nm) of bacterial growth, strain TES ([3]; 0.25 mg/mL): 0.04 | percentage in parentheses (susceptibility), strain TES ([3]; 0.25 mg/mL): (73%) | optical density (560 nm) of bacterial growth, strain TES ([3]; 0.5 mg/mL): 0.026 | percentage in parentheses (susceptibility), strain TES ([3]; 0.5 mg/mL): (74%) | MIC [3]: 125 µg/mL (≈ 387 µM) | optical density (560 nm) of bacterial growth, strain KHW ([1]; 0.03125 mg/mL): 0.51 | percentage in parentheses (susceptibility), strain KHW ([1]; 0.03125 mg/mL): (1%) | optical density (560 nm) of bacterial growth, strain KHW ([1]; 0.0625 mg/mL): 0.42 | percentage in parentheses (susceptibility), strain KHW ([1]; 0.0625 mg/mL): (10%) | optical density (560 nm) of bacterial growth, strain KHW ([1]; 0.125 mg/mL): 0.07 | percentage in parentheses (susceptibility), strain KHW ([1]; 0.125 mg/mL): (60%) | optical density (560 nm) of bacterial growth, strain KHW ([1]; 0.25 mg/mL): 0.03 | percentage in parentheses (susceptibility), strain KHW ([1]; 0.25 mg/mL): (64%) | optical density (560 nm) of bacterial growth, strain KHW ([1]; 0.5 mg/mL): 0.01 | percentage in parentheses (susceptibility), strain KHW ([1]; 0.5 mg/mL): (68%) | mortality [4]: 74% | MIC [5]: 125 µg/mL (≈ 387 µM)

[H]/N=C(/N)N[C@H]1[C@H](O)[C@@H](O)[C@H](O[C@@H]2O[C@@H](C)[C@](O)(C=O)[C@H]2O[C@@H]2O[C@@H](CO)[C@H](O)[C@@H](O)[C@@H]2NC)[C@@H](N/C(N)=N\[H])[C@@H]1O [Streptomycin]
Size of inhibition zone, Sa (+) (Staphylococcus aureus): 30.3 ± 0.77 mm | Size of inhibition zone, Ea (−) (Enterobacter aerogenes): 15.7 ± 0.44 mm | Size of inhibition zone, Pv (−) (Proteus vulgaris): 18.2 ± 0.83 mm | Size of inhibition zone, Pm (−) (Proteus mirabilis): 27.8 ± 1.09 mm | Size of inhibition zone, Pa (−) (Pseudomonas aeruginosa): 16.5 ± 0.50 mm | Size of inhibition zone, Ec (−) (Escherichia coli): 29.4 ± 0.89 mm

CC(C)(O/N=C(\C(=O)N[C@@H]1C(=O)N2C(C(=O)[O-])=C(C[n+]3ccccc3)CS[C@H]12)c1csc(N)n1)C(=O)O [Ceftazidime]
optical density (560 nm) of bacterial growth, strain TES ([3]; 0.03125 mg/mL): 0.49 | percentage in parentheses (susceptibility), strain TES ([3]; 0.03125 mg/mL): (33%) | optical density (560 nm) of bacterial growth, strain TES ([3]; 0.0625 mg/mL): 0.35 | percentage in parentheses (susceptibility), strain TES ([3]; 0.0625 mg/mL): (47%) | optical density (560 nm) of bacterial growth, strain TES ([3]; 0.125 mg/mL): 0.09 | optical density (560 nm) of bacterial growth, strain TES ([3]; 0.25 mg/mL): 0.03 | percentage in parentheses (susceptibility), strain TES ([3]; 0.25 mg/mL): (86%) | optical density (560 nm) of bacterial growth, strain TES ([3]; 0.5 mg/mL): 0.01 | percentage in parentheses (susceptibility), strain TES ([3]; 0.5 mg/mL): (88%) | MIC [3]: 125 µg/mL (≈ 229 µM) | gene expression (THP-1 cells): majority of the genes were up regulated | optical density (560 nm) of bacterial growth, strain KHW ([1]; 0.03125 mg/mL): 0.44 | percentage in parentheses (susceptibility), strain KHW ([1]; 0.03125 mg/mL): (22%) | optical density (560 nm) of bacterial growth, strain KHW ([1]; 0.0625 mg/mL): 0.24 | percentage in parentheses (susceptibility), strain KHW ([1]; 0.0625 mg/mL): (24%) | optical density (560 nm) of bacterial growth, strain KHW ([1]; 0.125 mg/mL): 0.04 | percentage in parentheses (susceptibility), strain KHW ([1]; 0.125 mg/mL): (62%) | optical density (560 nm) of bacterial growth, strain KHW ([1]; 0.25 mg/mL): 0.05 | percentage in parentheses (susceptibility), strain KHW ([1]; 0.25 mg/mL): (61%) | optical density (560 nm) of bacterial growth, strain KHW ([1]; 0.5 mg/mL): 0.08 | percentage in parentheses (susceptibility), strain KHW ([1]; 0.5 mg/mL): (58%) | mortality [4]: 37% | MIC [5]: 125 µg/mL (≈ 229 µM)
